ChEMBL document CHEMBL4627333, “Addition of ethylamines to the phenols of bithionol and synthetic retinoids does not elicit activity in gram-negative bacteria” (2020)
Converted amounts (≈) assume the structure as drawn.

Experiments:
Staphylococcus aureus [1] = assay: Membrane disrupting activity in methicillin-resistant Staphylococcus aureus MW2 assessed as antibacterial activity by measuring inhibition of bacterial growth by CLSI-based antimicrobial dilution susceptibility method
Staphylococcus aureus [2] = assay: Membrane disrupting activity in methicillin-resistant Staphylococcus aureus BF2 assessed as antibacterial activity by measuring inhibition of bacterial growth by CLSI-based antimicrobial dilution susceptibility method
Staphylococcus aureus [3] = assay: Membrane disrupting activity in methicillin-resistant Staphylococcus aureus BF1 assessed as antibacterial activity by measuring inhibition of bacterial growth by CLSI-based antimicrobial dilution susceptibility method
Acinetobacter baumannii = assay: Membrane disrupting activity in Acinetobacter baumannii ATCC 17978 assessed as antibacterial activity by measuring inhibition of bacterial growth by CLSI-based antimicrobial dilution susceptibility method
Pseudomonas aeruginosa = assay: Membrane disrupting activity in Pseudomonas aeruginosa PA14 assessed as antibacterial activity by measuring inhibition of bacterial growth by CLSI-based antimicrobial dilution susceptibility method
Klebsiella pneumoniae = assay: Membrane disrupting activity in Klebsiella pneumoniae WGLW2 assessed as antibacterial activity by measuring inhibition of bacterial growth by CLSI-based antimicrobial dilution susceptibility method; conditions: subsp. pneumoniae WGLW2
Staphylococcus aureus [4] = assay: Membrane disrupting activity in methicillin-resistant Staphylococcus aureus BF3 assessed as antibacterial activity by measuring inhibition of bacterial growth by CLSI-based antimicrobial dilution susceptibility method

**Q.** For `Oc1c(Cl)cc(Cl)cc1Sc1cc(Cl)cc(Cl)c1O` [BITHIONOL], which MIC (Staphylococcus aureus [1]) is on record?
**A.** The MIC was 1 µg/mL (≈ 2.81 µM).

**Q.** What about the MIC (Staphylococcus aureus [2]) of the same compound?
**A.** The MIC was 1 µg/mL (≈ 2.81 µM).

**Q.** And the MIC (Staphylococcus aureus [3])?
**A.** Its MIC is 1 µg/mL (≈ 2.81 µM).

**Q.** What about the MIC (Acinetobacter baumannii) of the same compound?
**A.** Its MIC is 16 µg/mL (≈ 44.9 µM).

**Q.** What about the MIC (Pseudomonas aeruginosa) of the same compound?
**A.** The MIC was 32 µg/mL (≈ 89.9 µM).

**Q.** And the MIC (Klebsiella pneumoniae)?
**A.** Its MIC is 64 µg/mL (≈ 180 µM).

**Q.** And the MIC (Staphylococcus aureus [4])?
**A.** Its MIC is 0.5 µg/mL (≈ 1.4 µM).

**Q.** What does the source list for `NCCOc1cc(CO)cc2ccc(-c3ccc(O)c(C45CC6CC(CC(C6)C4)C5)c3)cc12`?
**A.** MIC (Staphylococcus aureus [1]): 4 µg/mL (≈ 9.02 µM); MIC (Staphylococcus aureus [2]): 4 µg/mL (≈ 9.02 µM); MIC (Staphylococcus aureus [3]): 4 µg/mL (≈ 9.02 µM); MIC (Acinetobacter baumannii): > 64 µg/mL; MIC (Pseudomonas aeruginosa): > 64 µg/mL; MIC (Klebsiella pneumoniae): > 64 µg/mL; MIC (Staphylococcus aureus [4]): 4 µg/mL (≈ 9.02 µM)

**Q.** Which results are given for `NCCOc1c(Cl)cc(Cl)cc1Sc1cc(Cl)cc(Cl)c1OCCN`?
**A.** MIC (Staphylococcus aureus [1]): 64 µg/mL (≈ 145 µM); MIC (Staphylococcus aureus [2]): 64 µg/mL (≈ 145 µM); MIC (Staphylococcus aureus [3]): 64 µg/mL (≈ 145 µM); MIC (Acinetobacter baumannii): 64 µg/mL (≈ 145 µM); MIC (Pseudomonas aeruginosa): > 64 µg/mL; MIC (Klebsiella pneumoniae): 64 µg/mL (≈ 145 µM); MIC (Staphylococcus aureus [4]): 32 µg/mL (≈ 72.4 µM)

**Q.** Which results are given for `NCCOc1cc(C(=O)O)cc2ccc(-c3ccc(O)c(C45CC6CC(CC(C6)C4)C5)c3)cc12`?
**A.** MIC (Staphylococcus aureus [1]): 8 µg/mL (≈ 17.5 µM); MIC (Staphylococcus aureus [2]): 16 µg/mL (≈ 35 µM); MIC (Staphylococcus aureus [3]): 8 µg/mL (≈ 17.5 µM); MIC (Acinetobacter baumannii): > 64 µg/mL; MIC (Pseudomonas aeruginosa): > 64 µg/mL; MIC (Klebsiella pneumoniae): > 64 µg/mL; MIC (Staphylococcus aureus [4]): 4 µg/mL (≈ 8.74 µM)

**Q.** Which results are given for `NCCOc1ccc(-c2ccc3cc(CO)ccc3c2)cc1C12CC3CC(CC(C3)C1)C2`?
**A.** MIC (Staphylococcus aureus [1]): > 64 µg/mL; MIC (Staphylococcus aureus [2]): > 64 µg/mL; MIC (Staphylococcus aureus [3]): > 64 µg/mL; MIC (Acinetobacter baumannii): > 64 µg/mL; MIC (Pseudomonas aeruginosa): > 64 µg/mL; MIC (Klebsiella pneumoniae): > 64 µg/mL; MIC (Staphylococcus aureus [4]): > 64 µg/mL

**Q.** Which results are given for `NCCOc1ccc(-c2ccc3cc(C(=O)O)ccc3c2)cc1C12CC3CC(CC(C3)C1)C2`?
**A.** MIC (Staphylococcus aureus [1]): > 64 µg/mL; MIC (Staphylococcus aureus [2]): > 64 µg/mL; MIC (Staphylococcus aureus [3]): > 64 µg/mL; MIC (Acinetobacter baumannii): > 64 µg/mL; MIC (Pseudomonas aeruginosa): > 64 µg/mL; MIC (Klebsiella pneumoniae): > 64 µg/mL; MIC (Staphylococcus aureus [4]): > 64 µg/mL

**Q.** What does the source list for `O=C(O)c1ccc2cc(-c3ccc(O)c(C45CC6CC(CC(C6)C4)C5)c3)ccc2c1` [O-DEMETHYLATED ADAPALENE]?
**A.** MIC (Staphylococcus aureus [1]): 2 µg/mL (≈ 5.02 µM); MIC (Staphylococcus aureus [2]): 2 µg/mL (≈ 5.02 µM); MIC (Staphylococcus aureus [3]): 2 µg/mL (≈ 5.02 µM); MIC (Acinetobacter baumannii): > 64 µg/mL; MIC (Pseudomonas aeruginosa): > 64 µg/mL; MIC (Klebsiella pneumoniae): > 64 µg/mL; MIC (Staphylococcus aureus [4]): 1 µg/mL (≈ 2.51 µM)
